Columns and labels:
[1] = tested on: rat cardiac muscle; assay: Isometric tension of papillary, atrial and ventricular bundles of cardiac muscle
Description: (§1) FIG. 2. The papillary muscle, and bundles of atrial and ventricular cells obtained from rat hearts were dissected and set in an aerated chamber to enable recording of isometric tension. LASSBio-294 was added to the chamber in a cumulative manner, first 10 μM and increasing to 50 μM and recordings made after allowing 5 min. for equilibration.
FIG. 3. LASSBio-294 was added to the physiologic solution at increasing concentrations. The isometric tension was expressed as a percent of control, as measured prior to addition of test solution. N=9 for each concentration.
a. The test shown in FIG. 2 measured the effect of LASSBio-294 on the isometric tension of papillary, atrial, and ventricular bundles of rat cardiac muscle. Chart traces are of muscle tension for each muscle group. […] FIG. 3 contains a graphic representation of the effect of LASSBio-294 on isometric tension of papillary, atrial, and ventricular bundles of rat cardiac muscle. LASSBio-294 at concentrations of 0 μM, 25 μM, 50 μM, 100 μM, 200 μM, and 500 μM was used. Isometric tension is expressed as a percent of control that was measured prior to addition of the test solution. […] General Method
as §1, with “The” for “FIG. 2. The”, “aerated verticle” for “aerated”, “manner. Recordings” for “manner, first 10 μM and increasing to 50 μM and recordings”

[2] = tested on: single muscle fiber; assay: Twitch tension in single amphibian muscle fibers; format: cell-based, frog, rana pipiens
Description: FIG. 15. Effect of 12.5 μM of compound 294 on force development in a single muscle fiber stimulated at different frequencies. The frequency of stimulation in Hz is indicated under each trace. Top panel, stimulating cycle done in Ringer without compound 294. Middle panel, stimulating cycle done 17 min after the fiber was bathed with compound 294. Bottom panel, second cycle of stimulation done 17 min after compound 294 was washed out with Ringer. Force calibration bars are 50 mg for twitches and 10 Hz simulations and 100 mg for 30, 60, and 90 Hz.
FIG. 16. Histogram showing the effect of 12.5 μM compound 294 and after washing out LASSBio-294 on fractional twitch tension (Tx/To). Tx represents the twitch tension obtained when the fiber was bathed with the solutions indicated above each column. The order of the columns are the order in which the simulating cycles were performed.
The tests in amphibians were performed in isolated single muscle cells freshly isolated from either the semitendinous or the tibialis anterior muscles of the frog, rana pipiens. The isolated muscle cells were left resting for at least half an hour in Ringer's solution. The fibers were then stimulated with single, low-voltage, electric shocks. If fibers gave brisk twitches and had no signs of membrane damage, they were used. Otherwise, they were discarded. Healthy fibers were transferred to the experimental chamber, which consisted of a 0.3 ml narrow channel where the solutions could be changed several times within five seconds. One tendon of the fiber was gripped with a small clamp and the other tendon was attached to a hook of an Ekhart;s type force transducer. The stimulating electrode consisted of platinum wires placed to each side of the fiber. The muscle fibers were stretched 1.3 times their slack length to reach approximately an average sarcomere length of 1.6 μm.
The fibers were stimulated with single electric pulses of 0.5 msec duration and variable voltage. The voltage was increased until the threshold for contraction was reached. This voltage was then increased by 50% and the experimental protocol started. To find out if LASSBio-294 has an effect on contractility, a stimulating protocol was used consisting of a series of single twitches elicited every 3 sec. followed by different frequencies of tetanic stimulation of 10 Hz, 30 Hz, and 60 Hz. The fibers rested for three minutes between each tetanic stimulation. When the whole series of stimulations were repeated, the fibers rested for 10 min. between each series of twitches and tetanic stimulations. Fatigue was induced by repetitive cycles of electrical stimulation. Each cycle consisted of a train of electric shocks delivered at 60 Hz for 0.8 sec followed by a single twitch after 2.2 sec and repeated every 4.15 sec. […]. […]

In the case of `O=C(NN=Cc1cccs1)c1ccc2c(c1)OCO2` [LASSBio-294, 3,4-methylenedioxybenzoyl-2-thienylhydrazone], the “isometric tension as percent of control vs concentration” value ([1]; 0, 25, 50, 100, 200, 500 μM, nine tests per concentration) is reported as “increased for each concentration up to 200 μM”, the isometric tension ([1]; papillary, atrial, ventricular bundles, 10 μM and 50 μM cumulative) is reported as “increase in tension” and the “increased tension over control” value ([1]; ventricular, papillary and atrial bundles, concentrations of up to 200 uM) is reported as no more than 2 fold. For the same molecule, the “increase of twitch tension vs control” value ([2]; 12.5 μM, second stimulation cycle, 17 min in compound) was roughly 50%, the “increase of twitch peak tension vs control” value ([2]; 12.5 μM, three minutes after bathing) was “approximately 25%” and the “twitch tension potentiation vs control after wash out” value ([2]; 17 min in Ringer after washing away 12.5 μM compound) was “approximately 77%”. For the same molecule, the “twitch force on re-exposure” value ([2]; fiber exposed again to 12.5 μM after wash out) was “decrease in twitch force”.

— patent publication US7091238B1, “Thienylhydrazon with digitalis-like properties (positive inotropic effects)” (University of Maryland, priority 1999, dated 2006)
